This assay has as its system plasma GH concentrations. Briefly: Growth hormone releasing activity in the infant rat (plasma GH by RIA). It is filed as in vivo, Sprague Dawley rats. The settings on record: male 10-day-old rats, 300 μg/kg subcutaneously, plasma 15 min later. How it is done:
Male 10-day-old Sprague Dawley rats, about 25 g body weight were used.
One hour before the experiments, pups were separated from their respective dams and were divided randomly into groups of eight each.
Pups were acutely challenged subcutaneously with 100 μl of solvent (DMSO, final dilution 1:300 in physiological saline), hexarelin (Tyr-Ala-His-D-Mrp-Ala-Trp-D-Phe-Lys-NH2, used as a reference drug), or new compounds (300 μg/kg) and killed by decapitation 15 min later.
Trunk blood was collected and centrifuged immediately. Plasma samples were stored at −20° C. until assayed for the determination of plasma GH concentrations.
Growth hormone concentrations in plasma were measured by RIA using materials provided by the National Institute of Diabetes, Digestive and Kidney Diseases (NIDDK) of the National Institute of Health U.S.A.
Values were expressed in terms of the NIDDK-rat-GH-RP-2 standard (potency 21 U/mg) as ng/ml of plasma.
The minimum detectable value of rat GH was about 1.0 ng/ml, and intraassay variability was about 6%.

Square brackets hold non-standard residues; d marks the D form. Peptide text beside a SMILES is read from it. dTrp(2-Me) = Cc1[nH]c2ccccc2c1C[C@@H](N)C(=O)O

With `NC1(C(=O)NC(Cc2c[nH]c3ccccc23)C(=O)NC(Cc2c[nH]c3ccccc23)NC=O)CCCCC1` (centres unmarked) [Example 56, H-Acc^6-(D)-Trp-(D)-gTrp-formyl], the GH (Table 9 test series) turned out to be 8.49 ± 0.40 ng/mL.

For `CNC(C)(C)C(=O)NC(CC1CNc2ccccc21)C(=O)NC(Cc1c[nH]c2ccccc12)NC(C)=O` (racemic) [Example 51, N(Me)-Aib-(D)-3(R/S)-Dht-(D)-gTrp-acetyl], the GH (Table 6 test series) was 19.38 ± 4.16 ng/mL.

Take `CC(C)(N)C(=O)NC(Cc1c[nH]c2ccccc12)C(=O)NC(Cc1c[nH]c2ccccc12)NC(=O)C1CCNCC1` [Example 22, Aib-D-Trp-gTrp-CO-piperidin-4-yl]: the GH (Table 3 test series) is 153.6 ± 30.6 ng/mL.

The molecule `CNC(C)(C)C(=O)N[C@H](Cc1c[nH]c2ccccc12)C(=O)N(C)[C@H](Cc1c[nH]c2ccccc12)NC(C)=O` [Example 40, N-Me-Aib-D-Trp-N-Me-D-gTrp-C(O)CH3] came in with a GH (Table 4 test series) of 188.2 ± 28.5 ng/mL.

Molecule `CCNC(=O)NC(Cc1c[nH]c2ccccc12)NC(=O)C(Cc1c[nH]c2ccccc12)NC(=O)C(C)(C)NC` (centres unmarked) [Example 59, N-Me-Aib-(D)-Trp-(D)-gTrp-C(O)NHCH2CH3] came in with a GH (Table 10 test series) of 179.53 ± 24.65 ng/mL.

`CC(C)(N)C(=O)NC(Cc1ccc2ccccc2c1)C(=O)NC(Cc1c[nH]c2ccccc12)NC=O` (centres unmarked) [Example 45, H-Aib-(D)-2-Nal-(D)-gTrp-formyl] came in with a GH (Table 5 test series) of 13.91 ± 03.87 ng/mL.

For `Cc1[nH]c2ccccc2c1C[C@@H](NC(=O)[C@@H](N)Cc1cnc[nH]1)C(=O)N[C@@H](C)C(=O)N[C@@H](Cc1c[nH]c2ccccc12)C(=O)N[C@H](Cc1ccccc1)C(=O)N[C@@H](CCCCN)C(N)=O` [HEXARELIN, Tyr-Ala-His-D-Mrp-Ala-Trp-D-Phe-Lys-NH2, reference compound] (H-H[dTrp(2-Me)]AW[dF]K-NH2), the GH is, setting by setting: (Table 1 test series) 202 ± 32.7 ng/mL; (Table 2 test series) 134.5 ± 27.2 ng/mL; (Table 3 test series) 114.7 ± 8.4 ng/mL; (Table 4 test series) 114.5 ± 12.9 ng/mL; (Table 5 test series) 276.01 ± 23.5 ng/mL; (Table 6 test series) 91.61 ± 4.09 ng/mL. Moreover, the GH (Table 7 test series) came out at 172.5 ± 38.53 ng/mL, the GH (Table 8 test series) amounted to 172.5 ± 38.53 ng/mL, the GH (Table 9 test series) worked out at 89.91 ± 3.04 ng/mL and the GH (Table 10 test series) was determined as 172.5 ± 38.53 ng/mL.

Under “Table 1 test series”, `CC(C)(N)C(=O)NC(Cc1c[nH]c2ccccc12)C(=O)NC(Cc1c[nH]c2ccccc12)NC=O` (centres unmarked) [Example 13, H-Aib-(D)-Trp-gTrp-CHO] showed a GH of 58 ± 6.3 ng/mL.

Where the note is “Table 10 test series”, `CCNC(=O)NC(Cc1c[nH]c2ccccc12)NC(=O)C(Cc1c[nH]c2ccccc12)NC(=O)C(C)(C)N` (centres unmarked) [Example 58, H-Aib-(D)-Trp-(D)-gTrp-C(O)NHCH2CH3] had a GH of 376.48 ± 43.24 ng/mL.

Consider `CC(C)(N)C(=O)NC(Cc1ccc2ccccc2c1)C(=O)NC(Cc1ccc2ccccc2c1)NC=O` (centres unmarked) [Example 43, H-Aib-(D)-2-Nal-g-(D)-2-Nal-formyl], for which the GH (Table 5 test series) amounted to 37.33 ± 19.74 ng/mL.

Under “Table 7 test series”, `CN(C)C(C)(C)C(=O)NC(Cc1c[nH]c2ccccc12)C(=O)NC(Cc1c[nH]c2ccccc12)NC=O` (centres unmarked) [Example 52, N(Me)2-Aib-(D)-Trp-(D)-gTrp-formyl] yielded a GH of 121.43 ± 29 ng/mL.

As to Pip-D-Trp-D-gTrp-C(O)CH3 [Example 7], the GH (Table 3 test series) amounted to 53.1 ± 6.6 ng/mL.

Regarding “H-Aib-(D)-3(R/S)-Dht-g-(D)-Trp-formyl [Example 49]”, for the setting “Table 6 test series”, the GH came to 24.35 ± 4.85 ng/mL.

In turn, `CC(C)(N)C(=O)NC(Cc1c[nH]c2ccccc12)C(=O)NC(Cc1ccc2ccccc2c1)NC=O` [Example 47, H-Aib-D-Trp-g-D-2-Nal-formyl] displayed a GH (Table 5 test series) of 9.04 ± 04.03 ng/mL.

Consider `CNC(C)(C)C(=O)NC(Cc1c[nH]c2ccccc12)C(=O)NC(CC1CNc2ccccc21)NC(C)=O` (racemic) [Example 50, N(Me)-Aib-(D)-Trp-(D)-3(R/S)-gDht-acetyl], for which the GH (Table 6 test series) was 11.17 ± 1.35 ng/mL.

For the setting “Table 3 test series”, `O=CNC(Cc1c[nH]c2ccccc12)NC(=O)C(Cc1c[nH]c2ccccc12)NC(=O)C1CCNCC1` [Example 8, Isonipecotyl-D-Trp-D-gTrp-CHO] came in with a GH of 94.2 ± 8.6 ng/mL.

Take “H-Aib-(D)-1-Nal-(D)-gTrp-formyl [Example 44]”: the GH (Table 5 test series) was 15.04 ± 03.30 ng/mL.

`CC(C)(N)C(=O)NC(C)(Cc1c[nH]c2ccccc12)C(=O)NC(Cc1c[nH]c2ccccc12)NC=O` [Example 60, H-Aib-(R)—Me-Trp-(D)-gTrp-formyl]: the GH (Table 8 test series) was 21.02 ± 3.43 ng/mL.

For the setting “Table 5 test series”, `CC(C)(N)C(=O)NC(Cc1cccc2ccccc12)C(=O)NC(Cc1cccc2ccccc12)NC=O` (centres unmarked) [Example 42, H-Aib-(D)-1-Nal-g-(D)-1-Nal-formyl] had a GH of 25.05 ± 06.00 ng/mL.

For `NC1(C(=O)NC(Cc2c[nH]c3ccccc23)C(=O)NC(Cc2c[nH]c3ccccc23)NC=O)CCCC1` (centres unmarked) [Example 55, H-Acc^5-(D)-Trp-(D)-gTrp-formyl], under “Table 9 test series”, the GH turned out to be 11.46 ± 1.18 ng/mL.

Molecule `CCCC(N)(CCC)C(=O)NC(Cc1c[nH]c2ccccc12)C(=O)NC(Cc1c[nH]c2ccccc12)NC=O` (centres unmarked) [Example 57, H-Dpg-(D)-Trp-(D)-gTrp-formyl] yielded a GH (Table 9 test series) of 18.38 ± 2.88 ng/mL.

In turn, `CC(=O)NC(Cc1c[nH]c2ccccc12)NC(=O)C(Cc1c[nH]c2ccccc12)NC(=O)C1CCNCC1` [Example 9, Isonipecotyl-D-Trp-D-gTrp-C(O)CH3] showed a GH (Table 3 test series) of 61.2 ± 10.8 ng/mL.

The molecule `CC(=O)NC(Cc1c[nH]c2ccccc12)NC(=O)C(Cc1c[nH]c2ccccc12)NC(=O)C(C)(C)N(C)C` (centres unmarked) [Example 53, N(Me)2-Aib-(D)-Trp-(D)-gTrp-acetyl] displayed a GH (Table 7 test series) of 26.80 ± 5.64 ng/mL.

As for `CC(C)(N)C(=O)NC(Cc1c[nH]c2ccccc12)C(=O)NC(CC1CNc2ccccc21)NC=O` (racemic) [Example 48, H-Aib-(D)-Trp-(D)-3(R/S)-Dht-formyl], the GH (Table 6 test series) is 17.49 ± 2.40 ng/mL.

`CNC(C)(C)C(=O)NC(Cc1c[nH]c2ccccc12)C(=O)NC(C)(Cc1c[nH]c2ccccc12)NC(C)=O` [Example 62, H-Me-Aib-(D)-Trp-(R)-Me-gTrp-acetyl] had a GH (Table 8 test series) of 171.78 ± 10.32 ng/mL.

`CC(=O)NC(Cc1c[nH]c2ccccc12)NC(=O)C(Cc1c[nH]c2ccccc12)NC(=O)C(C)(C)N` [Example 4, H-Aib-D-Trp-D-gTrp-C(O)CH3] yielded a GH (Table 2 test series) of 104.7 ± 13.5 ng/mL.

Molecule `CNC(C)(C)C(=O)NC(Cc1c[nH]c2ccccc12)C(=O)NC(Cc1c[nH]c2ccccc12)NC=O` [Example 3, N-Me-Aib-D-Trp-D-gTrp-CHO] registered a GH (Table 2 test series) of 86.6 ± 12.6 ng/mL.

In the case of `CNC(C)(C)C(=O)NC(Cc1c[nH]c2ccccc12)C(=O)NC(Cc1c[nH]c2ccccc12)NC(=O)C1CCNCC1` [Example 39, N-Me-Aib-D-Trp-D-gTrp-Isonipecotyl], the GH (Table 4 test series) amounted to 97.1 ± 21.0 ng/mL.

Molecule “H-Aib-D-Trp-N-Me-D-gTip-C(O)CH3 [Example 41]” had a GH (Table 4 test series) of 75.4 ± 15.0 ng/mL.

`CC(C)(N)C(=O)N[C@H](Cc1c[nH]c2ccccc12)C(=O)NC(Cc1cccc2ccccc12)NC=O` (some centres unmarked) [Example 46, H-Aib-(D)-Trp-g-(D)-1-Nal-formyl] had a GH (Table 5 test series) of 8.26 ± 01.09 ng/mL.

Turning to `NC1(C(=O)NC(Cc2c[nH]c3ccccc23)C(=O)NC(Cc2c[nH]c3ccccc23)NC=O)CC1` (centres unmarked) [Example 54, H-Acc^3-(D)-Trp-(D)-gTrp-formyl], the GH (Table 9 test series) was 7.89 ± 3.20 ng/mL.

Pip-D-Trp-D-gTrp-CHO [Example 6] had a GH (Table 3 test series) of 109.7 ± 10.1 ng/mL.

`CNC(C)(C)C(=O)N[C@H](Cc1c[nH]c2ccccc12)C(=O)N[C@H](Cc1c[nH]c2ccccc12)NC(C)=O` [Example 5, N-Me-Aib-D-Trp-D-gTrp-C(O)CH3] gave a GH (Table 2 test series) of 175.5 ± 37.2 ng/mL.

For the setting “Table 3 test series”, `CCC(=O)NC(Cc1c[nH]c2ccccc12)NC(=O)C(Cc1c[nH]c2ccccc12)NC(=O)C(C)(C)N` [Example 19, Aib-D-Trp-gTrp-CO—CH2—CH3] gave a GH of 79.8 ± 22.4 ng/mL.

For the setting “Table 8 test series”, `CC(Cc1c[nH]c2ccccc12)(NC=O)NC(=O)C(Cc1c[nH]c2ccccc12)NC(=O)C(C)(C)N` [Example 61, H-Aib-(D)-Trp-(R)-Me-gTrp-formyl] returned a GH of 152.28 ± 43.76 ng/mL.
